Assay results from patent US8609652B2, “Method of administering a methylene blue-curcumin analog for the treatment of alzheimer's disease” (DePuy Synthes Products, LLC, priority 2009, dated 2013).
pIC50: −log10 of the molar value. Entries after “also recorded” stand apart in the source; their conditions may differ. Counter-ions that a name gives are not always drawn. Like-named read-outs stand apart in the source and are kept apart here.

How the values were obtained:
[1] = cited from earlier work
[2] = cited from earlier work; for peak cerebrospinal fluid (CSF) concentration of estradiol: in vivo, 1 mg/kg
[3] = cited from earlier work; remark: listed apart in the source
[4] = cited from earlier work; for Parent Solubility: parent phenol
[5] = in vivo, 1 mg/kg
Text: In some embodiments, the water-soluble ester prodrug is created by reacting the phenolic parent compound with dimethylglycine. The literature reports rendering lipophilic phenolic compounds water soluble by reacting the phenolic parent compound with dimethylglycine. […]. Al-Ghananeem concluded that the prodrug provides for targeted intranasal delivery of 17B-estradiol to the brain.

[6] = carbamazepine peak brain tissue concentration by route (Barakat)
[7] = cited from earlier work; remark: listed apart in the source
PC12 cells, βA (25-35) = settings: cited from earlier work; for anti-βA (25-35) ED50: Park, concentration required to achieve 50% cell viability
PC12 cells = experiment: relative potency versus curcumin in in vitro protection of PC12 cells against beta amyloid insult; assay type: cell-based
Text: Each of the parent compounds may be obtained by the methods disclosed in Park.
It is further observed that both of these qualities can be placed into the same molecule (35).

PC12 cells, βA (1-42) = settings: cited from earlier work; for anti-βA (1-42) ED50: Park
[8] = cited from earlier work; remark: listed apart in the source
[9] = test system: enzymatic glucuronidation activity; settings: concentrations in excess of about 10 mM; cited from earlier work
UGT enzymes = settings: cited from earlier work
[10] = brain tissue concentration after curcumin injection (Wang); settings: injection of 30 mg/kg
amyloid plaques = settings: injected peripherally, aged Tg mice; cited from earlier work
[11] = oral dosing, cited from earlier work
UGT1A1 = target: T1, UGT1A1 (Homo sapiens, UniProt P22309); settings: about one hour after exposure; cited from earlier work
T1 sequence (P22309 26-533): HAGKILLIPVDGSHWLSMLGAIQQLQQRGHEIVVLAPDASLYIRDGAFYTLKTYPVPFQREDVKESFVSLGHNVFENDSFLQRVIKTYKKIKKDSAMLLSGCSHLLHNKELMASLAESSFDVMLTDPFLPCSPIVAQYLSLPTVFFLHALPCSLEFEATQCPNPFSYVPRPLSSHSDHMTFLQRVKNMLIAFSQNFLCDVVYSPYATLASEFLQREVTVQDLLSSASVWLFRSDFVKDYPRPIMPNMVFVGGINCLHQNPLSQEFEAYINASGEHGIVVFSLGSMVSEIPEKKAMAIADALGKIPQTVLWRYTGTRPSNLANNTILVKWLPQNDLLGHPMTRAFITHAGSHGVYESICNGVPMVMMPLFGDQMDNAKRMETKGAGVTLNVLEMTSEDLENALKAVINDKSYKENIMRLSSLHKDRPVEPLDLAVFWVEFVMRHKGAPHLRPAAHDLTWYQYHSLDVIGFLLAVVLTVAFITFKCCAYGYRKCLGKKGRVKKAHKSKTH

[12] = predicted curcumin levels from transdermal iontophoresis of charged curcumin prodrugs; assay type: in vivo, human
MRP2 = MRP2 (Homo sapiens, UniProt Q92887); settings: read-out: IC50, MRP-2-mediated transport; Wortelboer; cited from earlier work
Sequence of MRP2 (Q92887 whole entry): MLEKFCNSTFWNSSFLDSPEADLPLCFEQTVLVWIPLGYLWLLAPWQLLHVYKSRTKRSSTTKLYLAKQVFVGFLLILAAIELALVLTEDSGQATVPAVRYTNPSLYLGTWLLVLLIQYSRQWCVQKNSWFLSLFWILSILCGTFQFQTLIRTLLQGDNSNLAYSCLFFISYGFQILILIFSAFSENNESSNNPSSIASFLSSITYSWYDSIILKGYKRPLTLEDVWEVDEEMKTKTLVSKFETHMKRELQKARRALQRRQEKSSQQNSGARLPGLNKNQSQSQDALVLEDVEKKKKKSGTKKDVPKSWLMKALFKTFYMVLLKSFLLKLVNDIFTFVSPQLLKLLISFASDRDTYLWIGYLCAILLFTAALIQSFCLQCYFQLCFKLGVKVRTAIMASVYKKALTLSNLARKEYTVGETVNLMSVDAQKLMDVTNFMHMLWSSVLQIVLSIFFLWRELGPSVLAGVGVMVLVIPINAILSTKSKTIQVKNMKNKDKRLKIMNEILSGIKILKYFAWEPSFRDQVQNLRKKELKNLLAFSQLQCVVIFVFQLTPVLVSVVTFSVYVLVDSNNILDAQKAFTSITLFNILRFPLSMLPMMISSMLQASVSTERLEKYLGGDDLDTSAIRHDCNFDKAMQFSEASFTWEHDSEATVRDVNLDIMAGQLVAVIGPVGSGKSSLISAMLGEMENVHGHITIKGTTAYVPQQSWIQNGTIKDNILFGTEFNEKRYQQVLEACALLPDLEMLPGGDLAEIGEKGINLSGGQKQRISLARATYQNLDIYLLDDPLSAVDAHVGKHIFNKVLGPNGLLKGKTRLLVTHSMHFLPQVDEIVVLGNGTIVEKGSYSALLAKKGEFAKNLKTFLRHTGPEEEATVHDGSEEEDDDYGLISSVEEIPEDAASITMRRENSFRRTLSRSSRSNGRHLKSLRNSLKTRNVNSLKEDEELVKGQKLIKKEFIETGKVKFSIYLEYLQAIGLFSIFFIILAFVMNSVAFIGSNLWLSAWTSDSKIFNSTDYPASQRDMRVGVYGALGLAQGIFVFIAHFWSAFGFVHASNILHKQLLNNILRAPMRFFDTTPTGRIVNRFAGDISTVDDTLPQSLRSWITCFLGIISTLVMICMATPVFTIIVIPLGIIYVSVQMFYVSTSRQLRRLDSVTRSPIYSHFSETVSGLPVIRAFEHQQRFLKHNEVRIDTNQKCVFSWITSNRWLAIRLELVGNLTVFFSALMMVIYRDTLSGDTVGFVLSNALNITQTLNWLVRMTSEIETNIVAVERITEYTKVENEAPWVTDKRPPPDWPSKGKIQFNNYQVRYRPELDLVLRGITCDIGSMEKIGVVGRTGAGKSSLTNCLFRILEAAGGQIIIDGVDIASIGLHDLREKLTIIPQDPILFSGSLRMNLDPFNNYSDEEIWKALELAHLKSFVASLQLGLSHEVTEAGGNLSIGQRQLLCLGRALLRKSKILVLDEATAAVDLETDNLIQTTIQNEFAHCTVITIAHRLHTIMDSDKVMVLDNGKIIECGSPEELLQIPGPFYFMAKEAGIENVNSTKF

[13] = cited from earlier work; for serum Cmax: volunteers
[14] = reservoir concentration about 25-50 mg/ml

For `C[C@]12CC[C@H]3[C@@H](CCC4=CC(=O)CC[C@@]43C)[C@@H]1CC[C@@H]2OC(=O)[C@@H]1CCC[N+]1(C)C` [testosterone-17β-stachydrine ester, chloride salt], the iontophoretic flux [1] is given as “about 40 μg/(cm^2·h)”.

In the case of `C[C@]12CC[C@@H]3c4ccc(O)cc4CC[C@H]3[C@@H]1CC[C@@H]2O` [17β-estradiol], the “CSF concentration of 17B-estradiol, intranasal versus comparable intravenous dose of the prodrug” value ([2]; dimethylglycine ester prodrug) is listed as 5-8 fold and the “octanol/water partition coefficient log P” value [3] is listed as 3.1-4.0.

For `CC(C)NCC(O)COc1ccc(CC(N)=O)cc1` (stereo not shown) [Atenolol], the Flux [1] is given as 400 μg/(cm^2 · h).

For `CCN(CC)CCC(=O)Oc1ccc2c(c1)CC[C@@H]1[C@@H]2CC[C@]2(C)[C@@H](O)CC[C@@H]12.Cl` [3-DEAPE2HCl, 3-N,N-diethylamino propionyl ester hydrochloride], the “water solubility of estradiol ester prodrug” value ([4]; dimethylglycine ester where the label is estradiol) is listed as “about 20 mg/ml”.

For `CN(C)CCCC(=O)Oc1ccc2c(c1)CC[C@@H]1[C@@H]2CC[C@]2(C)[C@@H](O)CC[C@@H]12.Cl` [3-DMABE2-HCl, 3-N,N dimethylamino butyl ester HCl], the “peak cerebrospinal fluid (CSF) concentration of estradiol” value [2] is listed as “about 66 ng/ml” and the “peak CSF concentration (molar)” value [5] is listed as ~0.15 µM.

For `NC(=O)N1c2ccccc2C=Cc2ccccc21` [Carbamazepine], the “Peak Brain Tissue, ~uM” value ([6]; Intranasal, 0.2 mg/kg) was ~48 µM, the “Peak Brain Tissue, ~uM” value ([6]; Intravenous, 8.0 mg/kg) was ~16 µM and the “Peak Brain Tissue, ~uM” value ([6]; Oral, 16 mg/kg) was ~12 µM. For the same compound, the “peak brain tissue concentration, intranasal versus oral dosing” value ([6]; in vivo, po) was “about four times higher”, the “Peak Brain Tissue” value ([7]; Intranasal, 0.2 mg/kg) was 12 µg/g and the “Peak Brain Tissue” value ([7]; Intravenous, 8.0 mg/kg) was 4 µg/g. The “Peak Brain Tissue” value ([7]; Oral, 16 mg/kg) was 3 µg/g.

For `COc1cc(/C=C/C(=O)COC(=O)/C=C/c2ccc(O)c(OC)c2)ccc1O` [compound 31, 4″-(3′″-methoxy-4′″-hydroxyphenyl)-2″-oxo-3″-enebutanyl3-(3′-methoxy-4′hydroxyphenyl)propenoate], the “anti-βA (25-35) ED50” value (PC12 cells, βA (25-35)) is listed as 1.0 ± 0.3 µg/mL, the “fold more potent than curcumin as neuroprotectant against beta amyloid” value (shortened to “fold more potent than curcumin”) (PC12 cells; analysis of the Park data) is listed as ~5 fold and the “anti-βA (1-42) ED50” value (PC12 cells, βA (1-42)) is listed as 2.0 ± 0.4 µg/mL.

In the case of `CC(C)c1cccc(C(C)C)c1OC(=O)[C@@H]1CCCN1` [L-proline ester of propofol], the “solubility of the prodrug” value [4] is listed as “about 1.1 mmol/ml”.

In the case of `CCCN(CCC)C1CCc2c(O)cccc2C1` (stereo not shown) [5-OH-DPAT], the Flux ([1]; 0.5 mg/ml) is listed as 78.4 nmol/cm/h, the Flux ([1]; 1.3 mg/ml) is listed as 187.6 nmol/cm/h and the Flux ([1]; 2.3 mg/ml) is listed as 318.2 nmol/cm/h. The Flux [1] was 90 μg/(cm^2 · h).

For `O=C(C=Cc1ccc(O)cc1)CC(=O)CCc1ccc(O)cc1` [compound 34, 1,7-bis(4-hydroxyphenyl)-1-heptene-3,5-dione], the “anti-βA (25-35) ED50” value (PC12 cells, βA (25-35)) is listed as 0.5 ± 0.2 µg/mL, the “fold more potent than curcumin” value (PC12 cells; analysis of the Park data) is listed as ~10 fold and the “anti-βA (1-42) ED50” value (PC12 cells, βA (1-42)) is listed as 1.0 ± 0.3 µg/mL.

In the case of `C[C@]12CC[C@H](O)CC1=CC[C@@H]1[C@@H]2CC[C@]2(C)C(=O)CC[C@@H]12` [DHEA], the “octanol/water partition coefficient log P” value [3] is given as 1.54.

In the case of `O=C(O)c1ccccc1O` [Salicylic Acid], the Flux [1] is listed as 41.17 μg/(cm^2 · h).

In the case of `CCCCOC(=O)[C@@H](N)Cc1ccc(O)c(O)c1` [L-dopa butyl ester], the “estimated time for 10% decomposition” value ([8]; pH 4.4, 0.05M phosphate buffer, 10° C.) is given as 2.7 years.

In the case of `Nc1nc2c(ncn2COCCO)c(=O)[nH]1` [Acyclovir], the “solubility in water of the unmodified compound” value [4] is listed as 1400 µg/mL.

In the case of `C[C@]12CC[C@H]3[C@@H](CCC4=CC(=O)CC[C@@]43C)[C@@H]1CC[C@@H]2O` [testosterone], the “Parent Solubility” value [4] is listed as 10 µg/mL and the Flux [1] is listed as 40 μg/(cm^2 · h).

For `CC(C)(C)NC[C@H](O)COc1nsnc1N1CCOCC1` [Timolol], the Flux ([1]; reservoir 10 mg/ml, 2 ml) is listed as 200 μg/(cm^2 · h) and the Flux ([1]; reservoir 20 mg/ml, 2 ml) is listed as 250 μg/(cm^2 · h).

For `[Mg+2]` [Mg^+2], the “inhibition of enzymatic glucuronidation activity” value [9] is given as “about 85%”.

In the case of Triton X-100, the “inhibition of several UGT enzymes” value (UGT enzymes) is given as “nearly fully inhibited”.

For `CCCCCCC(C)(C)c1cc(O)c2c(c1)OC(C)(C)[C@H]1CC=C(CO)C[C@H]21` [dexanabinol], the “Parent Solubility” value [4] is given as 2000 to 7000 µg/mL.

In the case of `COc1cc(/C=C/C(=O)CC(=O)/C=C/c2ccc(O)c(OC)c2)ccc1O` [curcumin, (E,E)-1,7-bis(4-hydroxy-3-methoxyphenyl)-1,6-heptadiene-3,5,-dione], the “peak curcumin concentration in brain tissue (molar)” value [10] is given as “about 0.40 uM”, the “blood brain barrier crossing and plaque binding” value (amyloid plaques) is given as “crossed the blood brain barrier and bound amyloid plaques” and the clearance ([11]; curcumin alone (Shoba)) is given as 495 L/h. For the same compound, the clearance ([11]; curcumin with piperine (Shoba)) was 713 L/h, the “solubility in water of the unmodified compound” value [4] was “about 0.004 mg/ml” and the “inhibition of UGT1A1” value (UGT1A1) was “about 95%”. For the same compound, the predicted flux ([12]; divalent curcumin salt) was “about 800 μg/(cm^2·h)”, the predicted plasma concentration ([12]; divalent curcumin salt) was “about 0.3 μM” and the predicted flux [12, 14] was “about 400 μg/(cm^2·h)”. For the same compound, the predicted plasma concentration [12, 14] was “about 60 ng/ml; also recorded: about 0.14 μM”, the predicted flux ([12]; worst case) was “about 35 μg/(cm^2·h)” and the predicted plasma concentration ([12]; worst case) was “about 5 ng/ml”. The predicted plasma concentration ([12]; worst case, flux 35, 50 cm^2, clearance 350 L/hr) was 0.012 µM, the “octanol/water partition coefficient log P” value [3] was ~3 and the pIC50 (MRP2) was 5.30. For the same compound, the AUC ([13]; Shoba, Oral + piperine) was 80 ng·h/mL, the AUC ([13]; Shoba, Oral Dosing) was 4 ng·h/mL and the “serum Cmax” value ([13]; Shoba, 2 g/day oral curcumin supplemented with piperine, second of two values) was 180 ng/mL. The “serum Cmax” value ([13]; Shoba, 2 g/day oral curcumin, first of two values) was 6 ng/mL, the AUC ([13]; Vareed, Oral Dosing) was ~30 ng·h/mL and the “area-under-the-curve (AUC)” value ([13]; dose of about 11 g, healthy volunteers, conjugated curcumin (Vareed)) was “about 30 μg/ml·hr”. The clearance ([13]; oral dosing of curcumin plus piperine (Shoba)) was 7.33 L/h.

In the case of `COc1cc(C=CC(=O)CC(=O)C=Cc2ccc(O)cc2)ccc1O` [compound 32, 1-(4-hydroxy-3-methoxyphenyl)-7-(4-hydroxyphenyl)-1,6-heptadiene-3,5-dione], the “anti-BA (25-35) ED50” value (PC12 cells, βA (25-35); Kim) is given as 4.7 ± 0.1 µg/mL, the “anti-βA (25-35) ED50” value (PC12 cells, βA (25-35)) is given as 4.0 ± 0.5 µg/mL and the “fold more potent than curcumin” value (PC12 cells; analysis of the Kim data) is given as ~1.5 fold. For the same compound, the “anti-BA (1-42) ED50” value (PC12 cells, βA (1-42); Kim) was 4.2 ± 0.3 µg/mL and the “anti-βA (1-42) ED50” value (PC12 cells, βA (1-42)) was 5.0 ± 0.5 µg/mL.

For `OCCOCCN1CCN(C(c2ccccc2)c2ccc(Cl)cc2)CC1` (stereo not shown) [hydroxyzine.HCl], the “octanol:water partition coefficient log Doct/pH 7.4” value ([3]; pH 7.4) is listed as 2.37-2.87.

For `CN(C)CCCC(=O)O[C@H]1CC[C@H]2[C@@H]3CCc4cc(O)ccc4[C@H]3CC[C@]12C.Cl` [17-DMABE2HCl, 17-N,N dimethylamino butyl ester HCl], the “peak cerebrospinal fluid (CSF) concentration of estradiol” value [2] is given as “about 30 ng/ml”, the “peak CSF concentration (molar)” value [5] is given as “about 0.075 μM” and the “shelf life of nasal spray solution” value ([8]; pH 4, 25° C.) is given as “approximately 19 months”.
